Measurements taken from ChEMBL document CHEMBL5329159, “Anti-proliferative activity of nitroquinolone fused acylhydrazones as non-small cell human lung cancer agents” (RSC Med Chem, 2023).
Activity calls are given as the source filed them. No cut-off for these calls is given here.

Assays:
MCF7 = experiment: Cytotoxicity against human MCF7 cells assessed as reduction in cell viability incubated for 72 hrs by MTT assay; format: functional, cell-based; settings: MCF7, 72 h
HeLa = experiment: Cytotoxicity against human HeLa cells assessed as reduction in cell viability incubated for 72 hrs by MTT assay; format: functional, cell-based
A549 [1] = experiment: Cytotoxicity against human A549 cells assessed as reduction in cell viability incubated for 72 hrs by MTT assay; format: functional, cell-based; settings: A549, 72 h
[2] = Cytotoxicity against HEK cells assessed as reduction in cell viability upto 200 uM incubated for 72 hrs by MTT assay; format: toxicity, cell-based; settings: human
A549 [3] = experiment: Induction of apoptosis in human A549 cells by AO/EtBr staining based fluorescence microscopic analysis; format: functional, cell-based
A549 [4] = experiment: Induction of morphological changes in human A549 cells assessed as formation of floating cells by inverted light microscopic analysis; format: functional, cell-based
A549 [5] = experiment: Induction of chromatin condensation in human A549 cells incubated for 24 hrs by DAPI staining based fluorescence microscopic analysis; format: functional, cell-based
A549 [6] = experiment: Induction of morphological changes in human A549 cells assessed as cell shrinkage by inverted light microscopic analysis; format: functional, cell-based
[7] = Induction of morphological changes in HEK cells assessed as cell detachment incubated for 24 hrs by inverted light microscopic analysis; format: toxicity, cell-based; settings: human
A549 [8] = experiment: Induction of cell cycle arrest in human A549 cells assessed as accumulation of cells at G2/M phase after 24 hrs by PI/RNase staining based flow cytometry analysis; format: functional
A549 [9] = experiment: Induction of morphological changes in human A549 cells assessed as membrane blebbing by inverted light microscopic analysis; format: functional, cell-based
A549 [10] = experiment: Induction of cell cycle arrest in human A549 cells assessed as accumulation of cells at S phase after 24 hrs by PI/RNase staining based flow cytometry analysis; format: functional
A549 [11] = experiment: Induction of cell cycle arrest in human A549 cells assessed as accumulation of cells at G0/G1 phase after 24 hrs by PI/RNase staining based flow cytometry analysis; format: functional
A549 [12] = experiment: Induction of nuclear fragmentation in human A549 cells incubated for 24 hrs by DAPI staining based fluorescence microscopic analysis; format: functional, cell-based
[13] = Induction of morphological changes in HEK cells assessed as cell blebbing incubated for 24 hrs by inverted light microscopic analysis; format: toxicity, cell-based; settings: human

Compound | IC50 (MCF7) [µM] | IC50 (HeLa) [µM] | IC50 (A549 [1]) [µM] | Activity [2] | Activity (A549 [3]) | Activity (A549 [4]) | Activity (A549 [5]) | Activity (A549 [6]) | Activity [7] | Activity (A549 [8]) | Activity (A549 [9]) | Activity (A549 [10]) | Activity (A549 [11]) | Activity (A549 [12]) | Activity [13]
O=C(N/N=C1\CCNc2c1cccc2[N+](=O)[O-])c1cccs1 | 22.8 | 29.6 | 26.3 | Non-Toxic |  |  |  |  |  |  |  |  |  |  | 
O=C(N/N=C1\CCNc2c1cc(Cl)cc2[N+](=O)[O-])c1ccco1 | 25.5 | 32.5 | 24.5 | Non-Toxic |  |  |  |  |  |  |  |  |  |  | 
O=C(N/N=C1\CCNc2c1cc(Cl)cc2[N+](=O)[O-])c1cccs1 | 19.2 | 20.1 | 17.1 | Non-Toxic | Active | Dose-Dependent Effect | Active | Dose-Dependent Effect | Non-Toxic | Active | Dose-Dependent Effect | Active | Active | Active | Non-Toxic
O=C(N/N=C1\CCNc2c1cc(Cl)cc2[N+](=O)[O-])c1cccnc1 | 20.5 | 26.8 | 23.1 | Non-Toxic |  |  |  |  |  |  |  |  |  |  | 
O=C(N/N=C1\CCNc2c1cc(Cl)cc2[N+](=O)[O-])c1ccccc1O | 18.4 | 21.3 | 15.3 | Non-Toxic | Active | Dose-Dependent Effect | Active | Dose-Dependent Effect | Non-Toxic | Active | Dose-Dependent Effect | Active | Active | Active | Non-Toxic
O=C(N/N=C1\CCNc2c1cccc2[N+](=O)[O-])c1ccco1 | 22.5 | 30.4 | 18.3 | Non-Toxic |  |  |  |  |  |  |  |  |  |  | 
O=C(N/N=C1\CCNc2c1cccc2[N+](=O)[O-])c1cccnc1 | 23.3 | 29.2 | 21.5 | Non-Toxic |  |  |  |  |  |  |  |  |  |  | 
O=C(N/N=C1\CCNc2c1cccc2[N+](=O)[O-])c1ccccc1O | 20.2 | 24.5 | 15.8 | Non-Toxic |  |  |  |  |  |  |  |  |  |  | 
COc1cccc2c1C(=O)c1c(O)c3c(c(O)c1C2=O)C[C@@](O)(C(=O)CO)C[C@@H]3O[C@H]1C[C@H](N)[C@H](O)[C@H](C)O1 [DOXORUBICIN] | 11.6 | 13.5 |  | Non-Toxic |  |  |  |  |  |  |  |  |  |  | 
